Assay results published in PMC12186257, “Serendipitous and Systematic Chemoproteomic Discovery of MBLAC2, HINT1, and NME1‑4 Inhibitors from Histone Deacetylase-Targeting Pharmacophores” (ACS Chemical Biology, 2025).
pIC50: −log10 of the molar value.

Assays:
[1] = target: recombinant HINT1 (hHint1) (Homo sapiens, UniProt P49773); assay: HINT1 enzyme activity assay (TrpA hydrolysis, fluorescence); type: biochemical; conditions: hHint1 0.002 µM, TrpA 0.5 µM, 25 °C
Source text: While the biologically relevant substrates of HINT1 have not been clearly elucidated, the protein has been implicated in opioid receptor signaling, − regulation of the melanoma-associated transcription factor MITF, , and DNA damage repair. These functions position HINT1 as a potential pharmacological target for treating conditions such as opioid resistance or melanoma. The only reported HINT1-targeting pharmacophores are nucleoside-based nonhydrolyzable substrate analogs, such as the carbamate TrpGC (Figure a). , We evaluated the inhibitory potential of KV-24 and KV-30 in enzyme activity assays using recombinant HINT1. […] This discrepancy could be attributed to reduced affinity for the recombinant enzyme due to the absence of post-translational modifications (PTMs), cofactors, or interaction partners that enhance drug binding. Alternatively, it might result from substrate dilution in the lysate, whereas high substrate concentrations in the enzyme activity assay require the inhibitor to compete more effectively.
Mouse brain proteomics – LC-MS/MS. Proteome analysis of brain mouse tissue samples was performed on a micro-flow LC timsTOF HT setup described in detail in REF14. Liquid chromatography in micro-flow mode was performed on a Vanquish Neo UHPLC System (Thermo Fisher Scientific) at a flow rate of 50 µL/min. […] 10 µg of peptide mix was injected and analyzed using a 58 min gradient starting at 1% B up to 45% B (1 h method). […]
Mouse proteomics data analysis. The data files were analyzed with DIA-NN 1.8.1. […] The resulting protein group tables were further analyzed by Perseus 1.6.2.2. […]
CME of transferrin and confocal microscopy analyses.For transferrin uptake experiments HeLa cells were seeded on Matrigel-coated coverslips, and incubated with 0.1 % DMSO, or with 100 µM dynasore, 20 µM KV50, 2 µM KV65, or 2 µM KV79 in media containing 10% FCS at 37°C for 20 h. […] All inhibitor treatments were performed in duplicate, to enable quantification of surface levels of transferrin receptors, and to assess the capability of transferrin receptor endocytosis. […]

recombinant NME1–4 = assay: nucleoside diphosphate kinase activity assay (ATP production from ADP and GTP, Kinase-GLO); type: biochemical; conditions: in vitro
Procedure: To evaluate whether KV-50 binding affects NME activity, we performed enzyme activity assays using recombinant NME1–4. The assay measured NME-catalyzed production of ATP from ADP (150 μM) and GTP (150 μM).
Nucleotide diphosphate kinase activity assays. The phosphotransfer activity of the NDPKs (NME1-4) was measured in a reaction mixture containing buffer A (20 mM Tris-HCl pH 8.0, 150 mM NaCl, and 1 mM MgCl2). All the samples were pipetted in replicates on a 384 well plate. One volume of the respective NDPK protein solution (NME1-4) was added from stock proteins (diluted in buffer a to a concentration of 300 pM) to the wells in four replicates. To these wells, one volume of the inhibitors (Six dilutions were prepared, starting with a 30 µM stock solution and then performing three-fold serial dilutions) was added and incubated at room temperature for 30 minutes. Then, one volume of the substrate mixture (300 μM GTP and 30 μM ADP) was added to the protein-inhibitor mixture-containing wells and incubated at room temperature for 30 minutes. Finally, three volumes of the Kinase-GLO reagent (Promega V6711) containing an ATP-dependent firefly luciferase were added to all the wells and five minutes later, the luminescence was measured using a plate reader. Eight different concentrations of ATP (0 - 10 μM) were used as standards for a calibration curve to calculate the amount of ATP produced by the different NDPKs.

Toxoplasma gondii = system: Toxoplasma gondii; parameters: method as in PMID 33360687, PMID 35483428, PMID 38431113, PMID 29414107; conditions: in human host cells; cited from earlier work

Sequence of recombinant HINT1 (hHint1) (P49773 whole entry): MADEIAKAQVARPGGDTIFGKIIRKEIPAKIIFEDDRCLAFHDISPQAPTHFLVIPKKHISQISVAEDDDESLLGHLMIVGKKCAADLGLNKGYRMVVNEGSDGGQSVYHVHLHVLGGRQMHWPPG

SMILES | pIC50 [1] | effect on NME enzyme activity (recombinant NME1–4) | inhibition of proliferation of protozoans (Toxoplasma gondii)
O=C(NO)c1ccc(-c2nc3ccccc3n3cccc23)cc1 [KV-24] | 4.91 | only modestly reduced NME enzyme activity | potently inhibit the proliferation
O=C(NO)c1ccc(-c2nc3ccccc3c3ccccc23)cc1 [KV-30] | 4.90 | only modestly reduced NME enzyme activity | potently inhibit the proliferation
